molecular target: T1, recombinant HIV-1 protease (Human immunodeficiency virus type 1 group M subtype B, UniProt P04585); test: Fluorometric (FRET) enzymatic assay for the inhibition constant (Ki) against the HIV protease; type: biochemical; conditions: not given
T1 construct: recombinant HIV-1 protease; purchased Bachem Bioscience
Text: Enzymatic Assay for Determining the Inhibition Constant (Ki) of Synthetic Compounds Prepared Against the HIV Protease
This is a fluorometric assay based on the cleavage by protease of a substrate carrying a donor group (EDANS, excitation at 340 nm and emission at 490 nm) and an acceptor group (DABCYL) on each side of the cleavage site, interacting together through fluorescence resonance energy transfer (FRET). Cleavage of the substrate by protease stops energy exchange between the two groups, resulting in a time-dependent increase in fluorescence intensity that is linearly related to the extent of substrate hydrolysis.
The enzymatic assay is done at 30° C. in a spectrophotometer microcuvet, in a total volume of 400 μL. The apparatus used for readings is a UV-visible Cary 1 spectrophotometer made by Varian. The reaction is run first in the absence of protease inhibitors for 2 min, using 355 μL of buffer at pH 4.7 (sodium acetate 100 mM, NaCl 1 M, EDTA 1 mM, DTT 1 mM, dimethylsulfoxide 10%, and BSA 1 mg/mL), 40 μL of substrate H-2930 from Molecular Probes (final concentration 10 μM) and 5 μL of recombinant HIV-1 protease (final concentration 18.3 nM) purchased from Bachem Bioscience. Fluorescence readings at […] are taken continuously during the reaction, allowing determination of the enzyme's initial velocity (v0). At the end of the 2 min incubation, the potential inhibitor at a defined concentration in a volume of 2 μL is added to the reaction, and fluorescence readings are taken for another 2 min, allowing determination of enzyme velocity (vi) in the presence of the inhibitory compound. Several concentrations of the putative inhibitors are tested in the assay. After calculation of vo and vi, the inhibition constant (Ki) of the compound is determined using the equation of Henderson: [formula]
and [I]=inhibitor concentration, [S ]=substrate concentration, Km=Michaelis-Menten constant, Kiapp =apparent Ki
Note that the Michaelis-Menten constant of HIV protease is determined by running the assay without inhibitors, using several concentrations of substrate, and plotting the results as a Cornish-Bowden graph with the ratio substrate concentration/velocity as the ordinate and substrate concentration as the abscissa.

Row | Ki [µM] | Compound
1 | 3.7 | O[C@@H]([C@H](O)[C@@H](COCc1ccccc1)OCc1ccccc1F)[C@@H](COCc1ccccc1)OCc1ccccc1F [Compound 21, 1,6-di-O-benzyl-2,5-di-O-(2-fluorobenzyl)-D-mannitol]
2 | 0.33 | O[C@@H]([C@H](O)[C@@H](COCc1c(F)cccc1F)OCc1ccc(F)cc1)[C@@H](COCc1c(F)cccc1F)OCc1ccc(F)cc1 [Compound 39, 1,6-di-O-(2,6-difluorobenzyl)-2,5-di-O-(4-fluorobenzyl)-D-mannitol]
3 | 10 | OCc1ccc(CO[C@H](COCc2ccccc2)[C@@H](O)[C@H](O)[C@@H](COCc2ccccc2)OCc2ccc(CO)cc2)cc1 [Compound 45, 1,6-di-O-benzyl-2,5-di-O-(4-hydroxymethylbenzyl)-D-mannitol]
4 | 1.6 | O[C@@H]([C@H](O)[C@@H](COCc1ccc(F)cc1)OCc1ccc(F)cc1)[C@@H](COCc1ccc(F)cc1)OCc1ccc(F)cc1 [Compound 52, 1,2,5,6-tetra-O-(4-fluorobenzyl)-D-mannitol]

same assay, conditions: Table 1, benzylated D-mannitol derivatives; pH 4.7, 30° C., substrate 10 μM, protease 18.3 nM

Row | Compound | Ki [µM]
5 | O[C@@H]([C@H](O)[C@@H](COCc1ccccc1)OCc1cccc(F)c1)[C@@H](COCc1ccccc1)OCc1cccc(F)c1 [Compound 20, 1,6-di-O-benzyl-2,5-di-O-(3-fluorobenzyl)-D-mannitol] | 1.8
6 | O[C@@H]([C@H](O)[C@@H](COCc1ccccc1)OCc1ccc(C(F)(F)F)cc1)[C@@H](COCc1ccccc1)OCc1ccc(C(F)(F)F)cc1 [Compound 22, 1,6-di-O-benzyl-2,5-di-O-(4-trifluoromethylbenzyl)-D-mannitol] | 10
7 | O[C@@H]([C@H](O)[C@@H](COCc1ccccc1)OCc1ccc(F)cc1F)[C@@H](COCc1ccccc1)OCc1ccc(F)cc1F [Compound 23, 1,6-di-O-benzyl-2,5-di-O-(2,4-difluorobenzyl)-D-mannitol] | 2.6 ± 0.5
8 | O[C@@H]([C@H](O)[C@@H](COCc1ccccc1)OCc1c(F)cccc1F)[C@@H](COCc1ccccc1)OCc1c(F)cccc1F [Compound 25, 1,6-di-O-benzyl-2,5-di-O-(2,6-difluorobenzyl)-D-mannitol] | 6.4
9 | O[C@@H]([C@H](O)[C@@H](COCc1ccc(C(F)(F)F)cc1)OCc1ccccc1)[C@@H](COCc1ccc(C(F)(F)F)cc1)OCc1ccccc1 [Compound 27, 1,6-di-O-(4-trifluoromethylbenzyl)-2,5-di-O-benzyl-D-mannitol] | > 2
10 | N#Cc1ccc(COC[C@@H](OCc2ccccc2)[C@@H](O)[C@H](O)[C@@H](COCc2ccc(C#N)cc2)OCc2ccccc2)cc1 [Compound 28, 1,6-di-O-(4-cyanobenzyl)-2,5-di-O-benzyl-D-mannitol] | 4.3
11 | CC(C)COC(=O)c1ccc(COC[C@@H](OCc2ccccc2)[C@@H](O)[C@H](O)[C@@H](COCc2ccc(C(=O)OCC(C)C)cc2)OCc2ccccc2)cc1 [Compound 30, 1,6-di-O-(4-carboisobutoxybenzyl)-2,5-di-O-benzyl D-mannitol] | > 3
12 | O[C@@H]([C@H](O)[C@@H](COCc1ccccc1F)OCc1ccccc1)[C@@H](COCc1ccccc1F)OCc1ccccc1 [Compound 32, 1,6-di-O-(2-fluorobenzyl)-2,5-di-O-benzyl-D-mannitol] | 0.6
13 | O[C@@H]([C@H](O)[C@@H](COCc1ccc(F)cc1F)OCc1ccccc1)[C@@H](COCc1ccc(F)cc1F)OCc1ccccc1 [Compound 33, 1,6-di-O-(2,4-fluorobenzyl)-2,5-di-O-benzyl-D-mannitol] | 4.2 ± 0.5
14 | O[C@@H]([C@H](O)[C@@H](COCc1ccccc1F)OCc1ccc(Br)cc1)[C@@H](COCc1ccccc1F)OCc1ccc(Br)cc1 [Compound 34, 1,6-di-O-(2-fluorobenzyl)-2,5-di-O-(4-bromobenzyl)-D-mannitol] | 1.9
15 | O[C@@H]([C@H](O)[C@@H](COCc1c(F)cccc1F)OCc1ccccc1)[C@@H](COCc1c(F)cccc1F)OCc1ccccc1 [Compound 35, 1,6-di-O-(2,6-difluorobenzyl)-2,5-di-O-benzyl-D-mannitol] | 0.33 ± 0.05
16 | Cc1ccccc1CO[C@H](COCc1ccccc1F)[C@@H](O)[C@H](O)[C@@H](COCc1ccccc1F)OCc1ccccc1C [Compound 38, 1,6-di-O-(2-fluorobenzyl)-2,5-di-O-(2-methylbenzyl)-D-mannitol] | 0.8
17 | O[C@@H]([C@H](O)[C@@H](COCc1ccccc1F)OCc1ccc(F)cc1)[C@@H](COCc1ccccc1F)OCc1ccc(F)cc1 [Compound 40, 1,6-di-O-(2-fluorobenzyl)-2,5-di-O-(4-fluorobenzyl)-D-mannitol] | 0.28
18 | NCc1ccc(CO[C@H](COCc2ccccc2)[C@@H](O)[C@H](O)[C@@H](COCc2ccccc2)OCc2ccc(CN)cc2)cc1 [Compound 46, 1,6-di-O-benzyl-2,5-di-O-(4-aminomethylbenzyl)-D-mannitol] | 27
19 | Cc1ccc(COC[C@@H](OCc2ccc(C)cc2)[C@@H](O)[C@H](O)[C@@H](COCc2ccc(C)cc2)OCc2ccc(C)cc2)cc1 [Compound 50, 1,2,5,6-tetra-O-(4-methylbenzyl)-D-mannitol] | > 1

Continued, values first:

Row | Ki [µM] | Compound
20 | 3.7 | Cc1ccc(CO[C@H](COCc2ccccc2)[C@@H](O)[C@H](O)[C@@H](COCc2ccccc2)OCc2ccc(C)cc2)cc1 [Compound 24, 1,6-di-O-benzyl-2,5-di-O-(4-methylbenzyl)-D-mannitol]
21 | 3 | Cc1ccc(COC[C@@H](OCc2ccccc2)[C@@H](O)[C@H](O)[C@@H](COCc2ccc(C)cc2)OCc2ccccc2)cc1 [Compound 26, 1,6-di-O-(4-methylbenzyl)-2,5-di-O-benzyl-D-mannitol]
22 | 2 | COC(=O)c1ccc(COC[C@@H](OCc2ccccc2)[C@@H](O)[C@H](O)[C@@H](COCc2ccc(C(=O)OC)cc2)OCc2ccccc2)cc1 [Compound 29, 1,6-di-O-(4-carbomethoxybenzyl)-2,5-di-O-benzyl-D-mannitol]
23 | 2.5 | O[C@@H]([C@H](O)[C@@H](COCc1ccc(F)cc1)OCc1ccccc1)[C@@H](COCc1ccc(F)cc1)OCc1ccccc1 [Compound 31, 1,6-di-O-(4-fluorobenzyl)-2,5-di-O-benzyl-D-mannitol]
24 | 26 | O=C(O)c1ccc(CO[C@H](COCc2ccccc2)[C@@H](O)[C@H](O)[C@@H](COCc2ccccc2)OCc2ccc(C(=O)O)cc2)cc1 [Compound 43, 1,6-di-O-benzyl-2,5-di-O-(4-carboxybenzyl)-D-mannitol]
25 | 20 | NC(=O)c1ccc(CO[C@H](COCc2ccccc2)[C@@H](O)[C@H](O)[C@@H](COCc2ccccc2)OCc2ccc(C(N)=O)cc2)cc1 [Compound 44, 1,6-di-O-benzyl-2,5-di-O-(4-carboxamidobenzyl)-D-mannitol]
26 | 1.2 | OCc1ccc(COC[C@@H](OCc2ccccc2)[C@@H](O)[C@H](O)[C@@H](COCc2ccc(CO)cc2)OCc2ccccc2)cc1 [Compound 48, 1,6-di-(4-hydroxymethylbenzyl)-2,5-dibenzyl-D-mannitol]
27 | 28 | O=Cc1ccc(CO[C@H](COCc2ccccc2)[C@@H](O)[C@H](O)[C@@H](COCc2ccccc2)OCc2ccc(C=O)cc2)cc1 [Compound 49, 1,6-di-O-benzyl-2,5-di-O-(4-formylbenzyl)-D-mannitol]
28 | 5 | O=C(O)c1ccc(COC[C@@H](OCc2ccccc2)[C@@H](O)[C@H](O)[C@@H](COCc2ccc(C(=O)O)cc2)OCc2ccccc2)cc1 [Compound 51, 1,6-di-O-(4-carboxybenzyl)-2,5-di-O-benzyl-D-mannitol]

Reference: patent US6313177A, “D-mannitol derivatives as HIV aspartyl protease inhibitors” (Pharmacor Inc., priority 1999, dated 2001)
